According to article PMC6112376, “Comprehensive Analyses and Prioritization of Tox21 10K Chemicals Affecting Mitochondrial Function by in-Depth Mechanistic Studies” (Environmental Health Perspectives, 2018):
Like-named read-outs stand apart in the source and are kept apart here.

Columns and labels:
rat primary hepatocytes [1] = assay: MMP assay in rat primary hepatocytes; settings: for IC50: Rattus norvegicus, Hepatocyte, read-out: MMP assays IC50 (µM) Rat Hepatocytes
HepG2 cells [2] = settings: cited from earlier work
rat primary hepatocytes [3] = system: rat primary hepatocytes
HepG2 cells [4] = assay: cells; settings: Homo sapiens; for IC50: HepG2, read-out: MMP assays IC50 (µM) HepG2; for Emax: HepG2, read-out: MMP assays efficacy (%) HepG2
[5] = read-out: MMP assays IC50 (µM) qHTS-HepG2
[6] = read-out: MMP assays IC50 (µM), qHTS-HepG2

SMILES	IC50 (rat primary hepatocytes [1])	MMP assays efficacy (%) qHTS-HepG2 (HepG2 cells [2])	IC50 (HepG2 cells [2]; [5])	MMP assays efficacy (%) Rat Hepatocytes (rat primary hepatocytes [3])	IC50 (HepG2 cells [4])	Emax (HepG2 cells [4])	IC50 (HepG2 cells [2]; [6])	MMP assays IC50 (µM) Rat Hepatocytes (rat primary hepatocytes [1])
OC(c1ccc(Cl)cc1)(c1cncnc1)c1ccccc1Cl (stereo not shown) [Fenarimol]	33.5 ± 2.73 µM	-77±13%	42.6 ± 21.9 µM	-81±45%	35.5 µM	81%		
CC1CCCCC1NC(=O)Nc1ccccc1 (stereo not shown) [Siduron]	43.9 ± 17.4 µM	-73±13%		-48±7%	35.5 µM	89%	41.6 ± 21.1 µM	
C[C@H]1O[C@@H](O[C@H]2CC[C@@]3(C)[C@H](CC[C@@H]4[C@@H]3C[C@@H](O)[C@]3(C)[C@@H](C5=CC(=O)OC5)CC[C@]43O)C2)C[C@H](O)[C@@H]1O[C@H]1C[C@H](O)[C@H](O[C@H]2C[C@H](O)[C@H](O[C@@H]3O[C@H](CO)[C@@H](O)[C@H](O)[C@H]3O)[C@@H](C)O2)[C@@H](C)O1 [Deslanoside]		-81±14%	1.84 ± 0.23 µM	inactive	0.44 µM	97%		inactive
O=C(Nc1ccc(Cl)c(Cl)c1)c1cc(Cl)cc(Cl)c1O [3,5-Dichlorosalicyl-3,4-dichloroanilide]	0.38 ± 0.03 µM	-105±6%	0.22 ± 0.09 µM	-67±6%	0.11 µM	93%		
Oc1ccc2ccc3cccc4ccc1c2c34 [Compound 1-Hydroxypyrene]	33.5 ± 2.73 µM	-110±22%	4.67 ± 1.95 µM	-49±25%	7.08 µM	99%		
CCC(C)c1cc([N+](=O)[O-])cc([N+](=O)[O-])c1OC(=O)OC(C)C (stereo not shown) [Dinobuton]	5.74 ± 4.21 µM	-105±4%	4.33 ± 1.24 µM	-115±54%	7.94 µM	101%		
O=C(CC(=O)c1ccccc1)c1ccccc1 [1,3-Diphenyl-1,3-propanedione]	39.8 ± 14.2 µM	-75±15%	11.7 ± 1.35 µM	-84±43%	35.5 µM	121%		
CCCCCc1ccc(C)cc1O [Amylmetacresol]		-109±16%	11.2 ± 0.65 µM	inactive		115%		inactive
CC(=O)Oc1ccc(C2(c3ccc(OC(C)=O)cc3)C(=O)Nc3ccccc32)cc1 [Oxyphenisatin acetate]	20.6 ± 1.68 µM	-63±8%		-71±28%	17.3 µM	118%	5.49 ± 4.6 µM	
CC1(C)[C@H](C(=O)O[C@H](C#N)c2cccc(Oc3ccccc3)c2)[C@@H]1/C=C(\Cl)C(F)(F)F [lambda-Cyhalothrin]	28.2 µM	-68±22%		-56±14%	15.8 µM	58%	24.4 ± 1.59 µM	
CC(=O)[C@]1(O)Cc2c(O)c3c(c(O)c2[C@@H](O[C@H]2C[C@H](N)[C@H](O)[C@H](C)O2)C1)C(=O)c1c(O)cccc1C3=O [Carminomycin]		-91±17%	1.25 ± 0.73 µM	inactive	21.8 µM	68%		inactive
COP(=S)(OC)Oc1c(Cl)cc(C)cc1Cl [Tolclofos-methyl]	31.2 ± 19 µM	-72±22%		-74±66%	39.8 µM	105%	30.6 ± 5.8 µM	
CCCSc1ccc2nc(NC(=O)OC)[nH]c2c1 [Albendazole]	15.5 ± 21.7 µM	-78±15%	9.35 ± 1.83 µM	-85±78%	19.4 µM	107%		
C=C(C)CN(CC)c1c([N+](=O)[O-])cc(C(F)(F)F)cc1[N+](=O)[O-] [Ethalfluralin]		-57±4%	43.3 ± 17.6 µM	inactive	44.7 µM	68%		inactive
Oc1cc(Cl)cc(Cl)c1Cl [2,3,5-Trichlorophenol]	27.7 ± 10.4 µM	-99±7%	5.8 ± 1.05 µM	-77±25%	6.31 µM	114%		
Oc1cc(Cl)c(Cl)c(Cl)c1 [3,4,5-Trichlorophenol]	33.8 ± 17.2 µM		3.8 ± 1.74 µM	-100±4%	5.01 µM	96%		
CC1(C)CCC(C)(C)c2cc(NC(=O)c3ccc(C(=O)O)cc3)ccc21 [Tamibarotene]	9.06 ± 6.66 µM	-128±10%		-75±57%	13.8 µM	95%	25.7 ± 1.05 µM	
